Assay results published in US20070004803A1, “Compounds and methods for use in treating neoplasia and cancer based upon inhibitors of isoprenylcysteine methyltransferase” (Purdue Research Foundation, priority 2003, published 2007).

Key:
[1] = biological target: T1, Saccharomyces cerevisiae Icmt (Saccharomyces cerevisiae, UniProt P32584); assay: In vitro vapor diffusion methyltransferase assay, AFC analogues as substrates; assay type: biochemical; settings: Relative velocity (compared to AFC) at 125 μM; substrate ability
T1 construct: A 734 bp EagI-SacII fragment, which contained the gene STE14, was amplified from pSM187; made in house; host or cells: Saccharomyces cerevisiae strain CH2704 (plasmid pCHH10m3N-STE14 in the Ste14p-lacking strain SM1188); membrane fraction
T1 sequence (P32584 1-239): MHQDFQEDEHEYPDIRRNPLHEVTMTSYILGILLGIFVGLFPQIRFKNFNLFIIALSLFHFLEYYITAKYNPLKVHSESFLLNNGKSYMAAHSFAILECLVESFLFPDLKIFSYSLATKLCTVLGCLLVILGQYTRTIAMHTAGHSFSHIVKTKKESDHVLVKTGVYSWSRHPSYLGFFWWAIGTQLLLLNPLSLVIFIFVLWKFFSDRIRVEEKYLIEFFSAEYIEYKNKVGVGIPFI
Procedure: Previous studies in this laboratory have focused on the isoprenoid substrate specificity of FTase. […] These isoprenoid moieties were chosen in part because the corresponding FPP analogues are alternative substrates for FTase, and can thus be readily incorporated into peptides and proteins. The assays were performed using overexpressed, reconstituted recombinant Saccharomyces cerevisiae Icmt.
(§1) Isolation of Membrane Fraction from Yeast Cells—Mid-log phase yeast cells (2.0-3.0 OD600/mL), grown in SC-URA, media, were harvested by centrifugation at 3500×g for 10 minutes at 4° C., washed with 10 mM NaN3, and resuspended in lysis buffer (0.3 M sorbitol, 10 mM Tris-HCl pH 7.5, 0.1 M NaCl, 5 mM MgCl2, 1% aprotinin, 10 μg/mL leupeptin, 10 μg/in L pepstatin A, 10 μg/mL chymostatin, 10 μg/mL bestatin, 1 mM dithiothreitol, and 2 mM AEBSF) to a final concentration of 800 OD600/mL. After a 15 min incubation on ice, the cells were frozen and thawed twice in liquid N2. The cells were then lysed by passing the mixture twice through a French press. The resultant mixture was centrifuged at 500×g to remove whole cells and other particulate. The supernatant was then treated with 50 U/mL micrococcal nuclease followed by centrifugation at 150,000×g in a Beckman L5 50B centrifuge (45 Ti rotor) for 90 minutes at 4° C., to pellet the membrane fraction. The pellet was resuspended in lysis buffer containing 10% glycerol, aliquoted, and stored at −80° C. Membrane protein concentration was determined using Coomassie Plus Protein Assay Reagent (Pierce Biotechnology) according to the manufacturers instructions, and compared to a BSA standard curve prepared by the same procedure. Protein samples were analyzed by immunoblot analysis and in vitro vapor diffusion methyltransferase assay as described elsewhere.
(§2) In vitro vapor diffusion methyltransferase assay—Methyltrasferase assays were performed in a total volume of 60 μL and a final Tris-HCl concentration of 100 mM, pH 7.5. All reactions contained 20 μM S-adenosyl-[^14C-methyl]-methionine (SAM) and 5 μg of membrane protein from the His-Ste14p overexpressing strain CH2704. Substrate curves were generated by varying the amount of compound in each reaction. […] The 60 μL reactions were incubated at 30° C. for 30 minutes. The reaction was stopped with the addition of 50 μL of 1M NaOH/1% SDS. 100 μL of this mixture is then spotted on folded filter paper (5.5 cm×1.5 cm) and lodged in the neck of a scintillation vial containing 10 mL of scintillation fluid. Hydroxide ion forms a tetrahedral intermediate with the newly formed ^14C-methyl ester on the methyl acceptor. This intermediate then eliminates ^14C-methanol, which diffuses into the scintillation fluid below. The filters were pulled out after 2-3 hours, the vials were shaken well and counted in a liquid scintillation analyzer.

[2] = biological target: T1, Saccharomyces cerevisiae Icmt; assay: In vitro vapor diffusion methyltransferase assay, inhibition of AFC methylation; assay type: biochemical; settings: for IC50: inhibition curves in the presence of 33 μM AFC; for Icmt inhibitory ability (in words): inhibition of AFC methylation
Procedure: Previous studies in this laboratory have focused on the isoprenoid substrate specificity of FTase. We have discovered analogues that are effective alternative substrates, and compounds that are potent inhibitors. […] In the initial study, six isoprenoid-modified analogues (2-7, Chart 1, below) of the minimal Icmt substrate AFC 1 were prepared and evaluated as substrates and as inhibitors of the enzyme. These isoprenoid moieties were chosen in part because the corresponding FPP analogues are alternative substrates for FTase, and can thus be readily incorporated into peptides and proteins. The assays were performed using overexpressed, reconstituted recombinant Saccharomyces cerevisiae Icmt.
as §1
as §2, with “reaction. Inhibition curves were generated by varying the amount of compound in each reaction while in the presence of 33 μM N-acetyl-S-farneslylcysteine (AFC).” for “reaction.”

SMILES	Icmt krel [1]	further results
CCCCCCCCCC/C(C)=C/CSC[C@H](NC(C)=O)C(=O)O [Compound 6]	24.2	
CC(=O)N[C@@H](CSC/C=C(\C)CC/C=C(/C)CCC=C(C)C)C(=O)O [Compound 5, N-Acetyl-S-(3,7,11-trimethyldodeca-2(E),6(Z),10-trien-1-yl)-L-cysteine]	19.1	
CC(=O)N[C@@H](CSC/C=C(/C)CC/C=C(\C)CCC=C(C)C)C(=O)O [Compound 4, N-Acetyl-S-(3,7,11-trimethyldodeca-2(Z),6(E),10-trien-1-yl)-L-cysteine]	62.0	
CC(=O)N[C@@H](CSC/C=C(\CC=C(C)C)CC/C=C(\C)CCC=C(C)C)C(=O)O [Compound 3, N-Acetyl-S-(3-(3-methylbut-2-enyl)-7,11-dimethyldodeca-2(Z),6(E),10-trien-1-yl)-L-cysteine]	5.9	Ki ([2]; AFC(protein)-competitive inhibition of Icmt): 21.3 µM; Icmt inhibitory ability (in words) [2]: low micromolar inhibitor of AFC methylation; mode of action ([2]; varying AFC at constant inhibitor concentration): AFC(protein)—competitive inhibitor of Icmt
C=CCC(=CCSC[C@H](NC(C)=O)C(=O)O)CCC=C(C)CCC=C(C)C [Compound 8, N-Acetyl-S-(3-allyl-7,11-dimethyldodeca-2,6,10-triene-1-yl)-L-cysteine]	18.6	
CC(=O)N[C@@H](CSCC=C(C)CCC=C(C)CCC=C(C)C)C(=O)O [Compound 1, N-acetyl-S-farneslylcysteine, reference compound]	100	

Now from value to compound, other results behind:

Icmt krel [1]	SMILES	further results
35.4	C=CCC/C(=C\CSC[C@H](NC(C)=O)C(=O)O)CC/C=C(\C)CCC=C(C)C [Compound 9, N-Acetyl-S-(3-(but-3-enyl)-7,11-dimethyldodeca-2Z,6E,10-trien-1-yl)-L-cysteine]	
50.0	CC(=O)N[C@@H](CSC/C=C(\CC=C(C)C)CC/C=C(\C)CC/C=C(\C)CCC=C(C)C)C(=O)O [Compound 12, N-Acetyl-S-(3-(3-methylbut-2-enyl) 7,11,15-trimethylhexadeca-2Z,6E,10E,14-tetraen-1-yl)-L-cysteine]	IC50 [2]: 130 µM
0.70	CC(=O)N[C@@H](CSC/C=C(\CC=C(C)C)CCc1ccc(-c2ccccc2)cc1)C(=O)O [Compound 14]	Icmt inhibitory ability (in words) [2]: moderately effective inhibitor of Icmt
35.0	CC(=O)N[C@@H](CSC/C=C(\C)CC/C=C(\CC=C(C)C)CCC=C(C)C)C(=O)O [Compound 10, N-Acetyl-S-(7-(3-methylbut-2-enyl)-3,11-dimethyldodeca-2Z,6E,10-trien-1-yl) -L-cysteine]	
16.3	CC(=O)N[C@@H](CSC/C=C(\C)CC/C=C(\CC=C(C)C)CC/C=C(\C)CCC=C(C)C)C(=O)O [Compound 13, N-Acetyl-S-(7-(3-methylbut-2-enyl) 3,11,15-trimethylhexadeca-2Z,6E,10E,14-tetraen-1-yl)-L-cysteine]	IC50 [2]: 130 µM
